The values below come from US7557088B2, “Methods and compositions for treating conditions” (NeoPro Labs, LLC, priority 2006, dated 2009).

The subject of series [1] is Pseudomonas syringae pv tomato, DC3000. Put plainly: systemic resistance of Arabidopsis plants to a virulent bacterial pathogen. As to conditions: 20 μl salicylic acid 1 mM and 20 μl SEQ ID NO: 15 applied to the leaves. In kind it is in vivo, Arabidopsis ecotype Columbia (Col-0). How it is done: Seeds of Arabidopsis ecotype Columbia (Col-0) were planted in potting soil. Plants were cultivated in a growth chamber with 10-h d (200 μmol m^−2s^−1 at 22° C.) and 14-h night (18° C.) cycles and 80% RH. Once a week plants were supplied with water and modified one-half strength Hoagland nutrient solution: 2 mM KNO 5 mM Ca(NO3)2 and trace elements, pH 7.
A virulent plant pathogen, Pst Pseudomonas syringae pv tomato, DC3000 was grown at 28° C. on King's medium B containing 40 mg/L tetracycline. Plants were inoculated with 1×10^7 cfu/ml of the pathogen in 0.01% Silwet L77 (v/v) (a surfactant) and distilled water 5 weeks after sowing. The bacterial suspension or a control solution (0.01% Silwet L77 in water) was then sprayed on the plant once.
Disease symptoms in Arabidopsis are water-soaked, spreading lesions, sometimes surrounded by chlorotic margin that eventually lead to yield loss and plant death.
To test the efficacy of SEQ ID NO: 15, some healthy and some disease plants were sprayed with salicylic acid in 0.01%. Silwet L77; some healthy and some disease plants were sprayed with SEQ ID NO: 15 in 0.01%. Silwet L77, and some healthy and some disease plants were sprayed with salicylic acid in combination with SEQ ID NO: 15 in 0.01%. Silwet L77. A control group of some healthy and some disease plants were sprayed with water in 0.01%. Silwet L77. […]

Series [2] concerns Sauromatum guttatum appendix. Put plainly: heat production by Sauromatum guttatum appendix sections treated with 2,6-dihydroxybenzoic acid (2,6-DHBA). As to conditions: second experiment, application up to 50 μM, data not shown. How it is done:
In one example, using Sauromatum guttatum as the experimental module, on the day of inflorescence-opening, the Sauromatum appendix (a 20-40 cm-long, slender organ) becomes warm, reaching a 32° C. temperature (Skubatz et al., 1991, Plant Physiol. 95-1084-1088). The heat generated by the appendix is generated by the mitochondria. This mitochondrial activity can be triggered by the addition of phenolic compounds, including but not limited to, salicylic acid, aspirin, and 2,6-dihydroxybenzoic acid. Test agents can be applied to the plant and the plant's temperature may be monitored in vivo.
FIG. 6 illustrates modulation of heat generated by 2,6-dihydroxybenzoic acid in the presence of the Alzheimer's peptide, Aβ 1-42, SEQ ID NO: 49 and a plant gene derived sequence in the Sauromatum guttatum appendix. One day before heat-production, sections of the appendix were placed in different solutions containing 2,6-dihydroxybenzoic acid (2,6-DHBA) with or without SEQ ID NO: 2 (FLPSEFGVDVDR) and SEQ ID NO: 51. Heat-production was monitored with thermocouples attached to the sections. A section placed in distilled water that was not generated any heat is the control (water). […] The temperature was recorded every 5 min. […] This figure illustrates that these peptides modulate thermogenicity in plants as well as animals and act as mitochondrial modulators.

Series [3] deals with post-surgical pain in rats. Briefly: oral administration, von Frey withdrawal response after plantar incision. In kind it is in vivo. As to conditions: for Withdrawal Response Post-Dose / Post-Dose change of pain threshold (arrow): morphine sulfate 3.7 mg/kg; for Withdrawal Response Post-Dose: peptides 100 mg/kg; for Withdrawal Response Post-Surgery: 150 min after surgery, before dosing; for Withdrawal Response Pre-Surgery: baseline 15 min pre-surgery; for Post-Dose change of pain threshold (arrow): peptides 100 mg/kg oral; for effect when administered with aspirin / effect when administered with Naloxone / effect on pain threshold: oral; for effect when administered with aspirin: ASA 1 mg/kg co-administered (Groups 4, 6, 9); for effect when administered with Naloxone: Naloxone 2 mg/kg co-administered (Groups 3, 5, 8); for effect on pain threshold: with 0.9% saline as Treatment 1 (Groups 2, 7, 10). From the text: Table VI below illustrates results from the oral administration of SEQ ID NO: 1 and SEQ ID NO: 153 and the effects of Naloxone and aspirin on their ability to decrease the pain threshold.
In this experiment animals were weighed and placed in the group numbers designated on the left hand column. Each group is composed of 10 rats. Animals were anesthetized with 1.8 to 4% isofluorane (delivered via a nose cone) and each received an intramuscular injection of penicillin (30,000 IU) in the triceps muscle after preparation of the foot with betadine and alcohol (SOPs VET-1 and VET-8). A 1 cm long incision of skin and fascia was made in the plantar aspect (heel, midfoot or distal pad area) of the right hind paw. No underlying muscle was incised. After hemostasis with gentle pressure, the incision was closed with one or two sutures (5-0 silk/nylon ophthalmic suture on a taper TF needle or equivalent). The wound site was covered with a mixture of polymixin B, neomycin, and bacitracin ointment. After surgery, rats were allowed to recover in their cages until behavioral testing. Prior to surgery, rats were placed individually on an elevated wire mesh floor covered with a clear plastic cage top and allowed to acclimate. Baseline pain behavior was measured as follows: Withdrawal responses to mechanical stimulation were determined using von Frey filaments applied from underneath the cage through openings (12×12 mm in the plastic mesh floor to an area adjacent to the intended incision). Each von Frey filament (Target force of 0.008 g to 300 g) was applied once starting with 0.008 g filament and continuing until a withdrawal response occurred or 300 g force was reached. The median force producing a response, determined from three tests given over a 10-min period was considered the withdrawal threshold. Rats were tested for responses 15 minutes pre-surgery, 150 minutes after surgery, and 20 minutes after treatment. Oral treatments 1 and 2 were co-administered 180 minutes after surgery. The test article/vehicle administration and pain measurements were as per Table below.
As illustrated by Table VI, SEQ ID NOs: 1 and 153 attenuate sensitization to von Frey mechanical stimuli after oral application. The response to the von Frey monofilament is in gram. Arrow up (1) indicates an increase in the pain threshold and arrow down (1) indicates a decrease in the threshold. Zero indicates no change.

Series [4] is described as follows: feeding behavior of rats exposed to high levels of the peptide. In kind it is in vivo. The following applies: at least 3 days. The text has this:
Pain is basically managed by two classes of drugs. […] The peptide has no anti-inflammatory properties and this differentiates it pharmacologically from analgesics in the NSAID's.

Series [5] can be described thus: solubility of test article in 0.9% saline. In kind it is physicochemical. As to conditions: 100 mg/mL: 1.4 mL of saline added to 141.5 mg, room temperature. How it is done:
The test article was SEQ ID NO: 1, a white powder, which was delivered in 0.9% saline. The test article formulations were prepared on the day of study and kept at room temperature until dosing. 100 mg/kg at 1 mL/kg=100 mg/mL 1.4 mL of saline added to 141.5 mg of test article, soluble.

The next series concerns opioid receptor. Briefly: mechanism of action with Naloxone, antagonist of the opioid receptors (oral pain study). Further details: species or system rats. As to conditions: inferred from in vivo Naloxone co-administration, no binding test. How it is done: When Naloxene was administered with SEQ ID NO: 153 (Group 8), the effects of SEQ ID NO: 153 were reduced (compare Group 8 to Group 10) but unlike the case of Morphine (Group 3), not completely eliminated.

Setting [6] is: 20 min after oral treatment, co-administered ASA 1 mg/kg.
Where [7] appears, read: 20 min after oral treatment, co-administered Naloxone 2 mg/kg.
[8] abbreviates: group later given Treatment 1 0.9% Saline + Treatment 2.
[9] abbreviates: group later given Treatment 1 ASA 1 mg/kg + Treatment 2.
The mark [10] stands for this setting: group later given Treatment 1 Naloxone 2 mg/kg + Treatment 2.
The mark [11] stands for this setting: group later given Treatment 1 0.9% Saline 2 mL/kg + oral Treatment 2 (morphine sulfate 3.7 mg/kg or peptide 100 mg/kg).
The mark [12] stands for this setting: co-administered Naloxone 2 mg/kg.

Values joined by “and” are separate entries in the source; they are usually repeats but may differ in a detail not shown here. Equal entries are not always repeated. Residues, ends and D or L forms follow the SMILES beside them. No end group written: not given here.

On to `O=C(O)c1ccccc1O` [salicylic acid], for which, in series [1], the “systemic resistance to the virulent bacteria” value is on record as “enough to trigger systemic resistance”.
As to FLPSEFGVDVDR [SEQ ID NO: 2], in series [2], the “heat generation by the peptide” value was “did not generate heat”.
In the case of `CN1CC[C@]23c4c5ccc(O)c4O[C@H]2[C@@H](O)C=C[C@H]3[C@H]1C5.O=S(=O)(O)O` [Morphine sulfate, reference compound], the “Withdrawal Response Post-Dose” value is on record as 6.6 g in series [3] (20 min after oral treatment at 180 min after surgery, Treatment 1 0.9% Saline 2 mL/kg, listed as Morphine, sulfate); 6.6 ± 1.58 g in series [3] (20 min after oral treatment at 180 min after surgery, Treatment 1 0.9% Saline 2 mL/kg, sulfate); 5.5 ± 0.80 g in series [3] (setting [6]); 3.5 ± 0.24 g in series [3] (setting [7]). For the same compound, the “Withdrawal Response Post-Surgery” value in series [3] (setting [8]) is given as 3.8 ± 0.52 g; in series [3] (setting [9]) it was 4.3 ± 0.41 g; in series [3] (setting [10]) it was 3.7 ± 0.39 g. For the same compound, the “Withdrawal Response Pre-Surgery” value in series [3] (setting [11]) turned out to be 30.4 ± 3.29 g; in series [3] (setting [9]), 21.9 ± 2.13 g; in series [3] (setting [10]) it was 28.5 ± 4.53 g. In addition, the “Post-Dose change of pain threshold (arrow)” value in series [3] (setting [12]) worked out at 0. In addition, the “effect when administered with aspirin” value in series [3] is listed as “aspirin reduced the effects of Morphine”. The “effect when administered with Naloxone” value in series [3] is on record as “the effect of Morphine is eliminated”. In addition, the “effect on pain threshold” value in series [3] is “the pain threshold is increased”.
Turning to `CC(C)C[C@H](NC(=O)[C@@H](N)Cc1ccccc1)C(=O)N1CCC[C@H]1C(=O)N[C@@H](CO)C(=O)O` [SEQ ID NO: 1, Phe-Leu-Pro-Ser] (H-FLPS-OH; N-terminus and C-terminus assumed), the feeding behavior entry in series [4] is “did not invoke an abnormal feeding behavior”. The solubility in saline entry in series [5] is reported as “soluble”.
Consider YGGFL [SEQ ID NO: 15], for which the “systemic resistance to the virulent bacteria” value in series [1] was “enough to trigger systemic resistance”.
Regarding SPLF [SEQ ID NO: 153], the “Withdrawal Response Post-Dose” value was 5.0 g and 5.0 ± 0.41 g in series [3] (20 min after oral treatment at 180 min after surgery, Treatment 1 0.9% Saline 2 mL/kg); 5.7 g and 5.7 ± 0.56 g in series [3] (setting [6]); 4.7 ± 0.45 g in series [3] (setting [7]). Further, the “Withdrawal Response Post-Surgery” value was 4.5 g and 4.5 ± 0.32 g in series [3] (setting [8]); 4.7 ± 0.56 g in series [3] (setting [9]); 4.5 ± 0.55 g in series [3] (setting [10]). Besides, the “Post-Dose change of pain threshold (arrow)” value in series [3] (Treatment 1 0.9% Saline 2 mL/kg) and in series [3] (setting [12]) was 0 throughout. Besides, the results for the “Withdrawal Response Pre-Surgery” value in series [3] (setting [11]), in series [3] (setting [9]) and in series [3] (setting [10]) were 28.1 ± 3.02 g, 29.2 ± 3.21 g and 29.3 ± 4.00 g, respectively. In series [3], the “effect when administered with aspirin” value was “improved effect”. For the same compound, the “effect when administered with Naloxone” value in series [3] is given as “reduced”. For the same compound, the “effect on pain threshold” value in series [3] is reported as “increases the pain threshold”. For the same compound, the “binding to the opioid receptor relative to Morphine and Naloxone” value in the series with opioid receptor was “binds to the opioid receptor more tightly than Morphine, but less tightly than Naloxene”.
